Target: T1, human RXFP1 (Homo sapiens, UniProt Q9HBX9)
T1 sequence (Q9HBX9 1-757): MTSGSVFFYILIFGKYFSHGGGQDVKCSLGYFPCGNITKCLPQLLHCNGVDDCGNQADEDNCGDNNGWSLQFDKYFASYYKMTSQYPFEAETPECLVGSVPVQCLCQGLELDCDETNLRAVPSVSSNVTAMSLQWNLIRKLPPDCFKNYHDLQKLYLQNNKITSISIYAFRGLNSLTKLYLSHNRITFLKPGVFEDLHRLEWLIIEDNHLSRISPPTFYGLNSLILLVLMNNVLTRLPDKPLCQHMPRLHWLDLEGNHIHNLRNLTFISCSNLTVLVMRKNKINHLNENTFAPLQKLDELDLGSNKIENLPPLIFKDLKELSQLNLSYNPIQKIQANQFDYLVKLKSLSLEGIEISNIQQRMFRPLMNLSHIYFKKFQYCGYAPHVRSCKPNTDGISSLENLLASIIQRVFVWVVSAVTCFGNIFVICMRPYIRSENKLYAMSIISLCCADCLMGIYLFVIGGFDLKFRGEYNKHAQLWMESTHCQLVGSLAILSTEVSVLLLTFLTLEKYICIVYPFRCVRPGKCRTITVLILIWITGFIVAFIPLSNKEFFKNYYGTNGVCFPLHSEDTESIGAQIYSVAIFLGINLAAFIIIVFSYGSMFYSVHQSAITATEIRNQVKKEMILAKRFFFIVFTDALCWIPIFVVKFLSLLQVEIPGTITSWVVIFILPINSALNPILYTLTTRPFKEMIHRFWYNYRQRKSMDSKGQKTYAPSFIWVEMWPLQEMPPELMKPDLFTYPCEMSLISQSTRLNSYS
Test: RXFP1 Hu cAMP (Test A)
Type: cell-based
Set-up: expressed in transfected cells; host or cells: Jump-In T-REx CHO-K1 cells (ThermoFisher), induced with 10 ng/ml doxycycline for 24 h
Conditions: RXFP1 Hu cAMP; for EC50: read-out: Test A EC50
Excerpt: To screen for modulators of hRXFP1, an assay identifying compounds that stimulate cAMP production via the Gs-coupled hRXFP1 receptor was used. cAMP HiRange HTRF kit (available from CisBio Bioassays, France; catalogue number 62AM6PEJ) was employed in large according to manufacturer's recommendations for detection of cAMP. The HTRF method is a competitive immunoassay between native cAMP produced by cells and cAMP labeled with the dye d2. The tracer binding is visualized with a cryptate labeled antibody for cAMP and the signal is thus inversely proportional to the amount of produced cAMP.
Cells: Jump-In™ T-REx™ CHO-K1 Cells (ThermoFisher) stably transfected with human RXFP1 was employed. Cells were induced to express human RXFP1 by treatment with 10 ng/ml doxycycline for 24 h. Cells were then cryopreserved for long term storage.
HTRF detection reagents: cAMP-d2 and anti-cAMP cryptate reconstituted according to CisBio instructions were diluted 1:40 in lysis buffer provided with the HTRF-kit.
3. 4 μL assay buffer with 1 mM IBMX (0.5 mM final concentration) to block phosphodiesterases was added with Multidrop Combi (ThermoFisher).
6. 4 μL cAMP-d2 in lysis buffer was added with Multidrop Combi.
7. 4 μL anti-cAMP cryptate in lysis buffer was added with Multidrop Combi
8. 2 h incubation at room temperature
Using a cAMP standard curve, HTRF data was converted to amount cAMP produced in the samples which was subsequentially used for calculation of concentration responses. Concentration response data were fitted with a four parameter logistic fit, the Hill equation. The results from the assay are reported in Table 36 as EC50 (μM) and Sinf (%).
Where the assay was run multiple times for the same compound, the geometric mean is reported.
Sinf is the fitted activity level, efficacy, at infinite concentration of test compound. To facilitate comparison of efficacy data, efficacy was normalized to % effect of the response stimulated by a saturating concentration of relaxin (1 nM). Where the assay was run multiple times for the same compound, the arithmetic mean is reported.

Row | Compound | Test A Sinf [%] | EC50 [nM]
1 | COc1cc(F)c(OCc2ccc(C(=O)O)cc2)cc1C(=O)N[C@H]1[C@@H](C(=O)Nc2cccc(S(=O)(=O)C(F)(F)F)c2)[C@@H]2C=C[C@H]1C2 (racemic) [Example 450] | 107 | 610
2 | COc1cc(F)c(-c2ccc(O)c(C(=O)O)c2)cc1C(=O)N[C@H]1[C@@H]2CC[C@@H](C2)[C@H]1C(=O)Nc1cccc(S(=O)(=O)C(F)(F)F)c1 (single isomer, unassigned) [Example 556] | 114 | 130
3 | COc1cc(F)c(O[C@H]2CC[C@@](C)(C(=O)O)CC2)cc1C(=O)N[C@@H]1[C@H]2CC[C@H](C2)[C@@H]1C(=O)NC1CCC1 [Example 598] | 99 | 890
4 | COc1cc(F)c(O[C@H]2CC[C@@](C)(C(=O)O)CC2)cc1C(=O)NC1C2C=CC(CC2)C1C(=O)NCC1(C)CCC1 (single isomer, unassigned) [Example 544, (1R,4s)-4-(2-Fluoro-4-methoxy-5-(((1R*,2S*,3R*,4S*)-3-(((1-methylcyclobutyl)methyl)carbamoyl)bicyclo[2.2.2]oct-5-en-2-yl)carbamoyl)phenoxy)-1-methylcyclohexane-1-carboxylic acid] | – | > 40000
5 | COc1cc(F)c(O[C@H]2CC[C@@](C)(C(=O)O)CC2)cc1C(=O)N[C@@H]1COC[C@@H]1C(=O)Nc1cccc(S(=O)(=O)C(F)(F)F)c1 (racemic) [Example 342] | 132 | 550
6 | COc1cc(F)c(O[C@H]2CC[C@@](C)(C(=O)O)CC2)cc1C(=O)NC1COCC1C(=O)Nc1cccc(S(=O)(=O)C(F)(F)F)c1 (single isomer, unassigned) [Example 560, (1R,4s)-4-(2-Fluoro-4-methoxy-5-(((3S*,4R*)-4-((3-((trifluoromethyl)sulfonyl)phenyl)carbamoyl)tetrahydrofuran-3-yl)carbamoyl)phenoxy)-1-methylcyclohexane-1-carboxylic acid] | – | > 40000
7 | CCOc1cc(F)c(O[C@H]2CC[C@@](C)(C(=O)O)CC2)cc1C(=O)N[C@@H]1[C@H]2CC[C@H](C2)[C@@H]1C(=O)NC12CC(F)(C1)C2 [Example 384] | 108 | 130
8 | (1R,4s)-4-(2-Fluoro-5-(((1S*,2S*,5S*)-2-hydroxy-5-((3-((trifluoromethyl)sulfonyl)phenyl)carbamoyl)cyclopentyl)carbamoyl)-4-methoxyphenoxy)-1-methylcyclohexane-1-carboxylic acid [Example 529] | 96 | –
9 | (1R,4s)-4-(2-Fluoro-4-methoxy-5-(((1S*,2R*,4R*)-4-methoxy-2-(neopentylcarbamoyl)cyclopentyl)carbamoyl)phenoxy)-1-methylcyclohexane-1-carboxylic acid [Example 547] | 114 | –
10 | COc1cc(F)c(O[C@H]2CC[C@@](CO)(C(=O)O)CC2)cc1C(=O)N[C@H]1[C@@H](C(=O)NCC2(C)CCC2)[C@H]2CC[C@@H]1O2 (racemic) [Example 332] | 103 | –
11 | O=C(O)c1ccc(-c2cc(C(=O)N[C@H]3[C@@H](C(=O)Nc4cccc(S(=O)(=O)C(F)(F)F)c4)[C@@H]4C=C[C@H]3C4)c(F)cc2F)cc1 (racemic) [Example 306, rac-2′,4′-Difluoro-5′-(((1R,2R,3S,4S)-3-((3-((trifluoromethyl)sulfonyl)phenyl)carbamoyl)bicyclo[2.2.1]hept-5-en-2-yl)carbamoyl)-[1,1′-biphenyl]-4-carboxylic acid] | 73 | –
12 | COc1cc(F)c(-c2ccc(C(=O)O)cc2)cc1C(=O)N[C@H]1[C@@H]2CC[C@@H](C2)[C@H]1C(=O)Nc1ccc(F)c(C(F)(F)F)c1 (single isomer, unassigned) [Example 590] | – | > 40000
13 | COc1cc(F)c(OC2CCC(C)(C(=O)O)CC2)cc1C(=O)NC1COCC1C(=O)NCC1(C)CCC1 [Example 576, (1R,4s)-4-(2-Fluoro-4-methoxy-5-(((3S*,4R*)-4-(((1-methylcyclobutyl)methyl)carbamoyl)tetrahydrofuran-3-yl)carbamoyl)phenoxy)-1-methylcyclohexane-1-carboxylic acid] | 118 | –
14 | COc1cc(C#N)c(O[C@H]2CC[C@@](C)(C(=O)O)CC2)cc1C(=O)N[C@@H]1CC[C@@H]1C(=O)NCC1(C)CCC1 (racemic) [Example 348] | 101 | 560
15 | COc1cc(F)c(-c2cc(C(=O)O)cs2)cc1C(=O)N[C@H]1[C@@H](C(=O)Nc2cccc(S(=O)(=O)C(F)(F)F)c2)[C@@H]2C=C[C@H]1C2 (racemic) [Example 284, rac-5-(2-Fluoro-4-methoxy-5-(((1R,2R,3S,4S)-3-((3-((trifluoromethyl)sulfonyl)phenyl)carbamoyl)bicyclo[2.2.1]hept-5-en-2-yl)carbamoyl)phenyl)thiophene-3-carboxylic acid] | 85 | 820
16 | COc1cc(F)c(O[C@H]2CC[C@@](C)(C(=O)O)CC2)cc1C(=O)N[C@H]1[C@@H](C(=O)NCC2(C)CCC2)[C@@H]2CC[C@H]1O2 (racemic) [Example 358] | 99 | 5100
17 | COc1cc(F)c(-c2ccc(OCC(=O)O)cc2)cc1C(=O)N[C@@H]1[C@H]2CC[C@H](C2)[C@@H]1C(=O)NCC(C)(C)C [Example 330, 2-((2′-Fluoro-4′-methoxy-5′-(((1S,2R,3S,4R)-3-(neopentylcarbamoyl)bicyclo[2.2.1]heptan-2-yl)carbamoyl)-[1,1′-biphenyl]-4-yl)oxy)acetic acid] | 97 | 530
18 | (1R,4s)-4-(2-Cyano-4-methoxy-5-(((1R*,2S*,3R*,4S*)-3-(((1-methylcyclobutyl)methyl)carbamoyl)bicyclo[2.2.2]oct-5-en-2-yl)carbamoyl)phenoxy)-1-methylcyclohexane-1-carboxylic acid [Example 541] | 100 | –
19 | COc1cc(F)c(-c2cc(C(=O)O)ccn2)cc1C(=O)N[C@H]1[C@@H](C(=O)Nc2cccc(S(=O)(=O)C(F)(F)F)c2)[C@@H]2C=C[C@H]1C2 (racemic) [Example 277] | 122 | 7400
20 | COc1cc(F)c(-c2cccc([C@@H](C(=O)O)N(C)C)c2)cc1C(=O)N[C@@H]1[C@H]2CC[C@H](C2)[C@@H]1C(=O)Nc1cccc(S(=O)(=O)C(F)(F)F)c1 (racemic) [Example 294] | 95 | 370
21 | COc1cc(C#N)c(O[C@H]2CC[C@@](C)(C(=O)O)CC2)cc1C(=O)N[C@@H]1[C@H]2CC[C@H](C2)[C@@H]1C(=O)NCC1CCOCC1 [Example 137] | 93 | > 2300
22 | COc1cc(C#N)c(O[C@H]2CC[C@@](C)(C(=O)O)CC2)cc1C(=O)N[C@@H]1[C@H]2CC[C@H](C2)[C@@H]1C(=O)N[C@@H](C)C(C)C [Example 127] | 71 | 990
23 | COc1cc(F)c(O[C@H]2CC[C@@](C)(C(=O)O)CC2)cc1C(=O)NC1CCC1C(=O)NCC(C)(C)C (single isomer, unassigned) [Example 568, (1R,4s)-4-(2-Fluoro-4-methoxy-5-(((1S*,2R*)-2-(neopentylcarbamoyl)cyclobutyl)carbamoyl)phenoxy)-1-methylcyclohexane-1-carboxylic acid] | – | > 40000
24 | COc1cc(F)c(OC2CCC(C)(C(=O)O)CC2)cc1C(=O)NC1C2CCC(CC2)C1C(=O)NCC1(C)CCC1 (single isomer, unassigned) [Example 543, (1R,4s)-4-(2-Fluoro-4-methoxy-5-(((2S*,3R*)-3-(((1-methylcyclobutyl)methyl)carbamoyl)bicyclo[2.2.2]octan-2-yl)carbamoyl)phenoxy)-1-methylcyclohexane-1-carboxylic acid] | 88 | 450
